{
  "source": "patent US20240382495A1",
  "about": "“COMBINATIONS OF COPANLISIB WITH ANTI-PD-1 ANTIBODY” (BAYER PHARMA AKTIENGESELLSCHAFT, priority 2023, published 2024)",
  "key": {"CT26 colorectal cancer": {"tested_on": "CT26 colorectal cancer", "test": "Anti-tumor efficacy in syngeneic CT26 colorectal cancer mouse model", "format": "in vivo", "conditions": "CT26 (KRASmut, non-MSIhigh) model, monotherapy", "protocol": "(§1) Experimental Methods A20 diffuse large B cell lymphoma and CT26 colorectal cancer cells were maintained in vitro in cell cultural medium supplemented with serum (according to the instructions for each corresponding cell lines) at 37° C. in an atmosphere of 5% CO2 in air. The tumor cells were routinely subcultured twice weekly. The cells in an exponential growth phase were harvested and counted for tumor inoculation. To investigate anti-tumor efficacy and mechanisms of action in vivo, each mouse was inoculated subcutaneously at the right lower flank region with tumor cells (1×10^5-2×10^6 depending on the cell lines) in 0.1 ml of PBS with or without metrigel for tumor development. Before commencement of treatment, all animals were weighed and the tumor volumes were measured using a caliper. […]\n(§2) Tumor volumes were measured 2-3 times weekly in two dimensions using a caliper, and the volume was expressed in mm^3 using the formula: V=0.5 a x b2 where a and b are the long and short diameters of the tumor, respectively. Tumor weight was measured at study termination. […]\nTherefore, the anti-tumor activity of Compound A and Compound B was assessed in the mouse syngeneic CT26 (KRASmut, non-MSIhig^h) colorectal cancer xenograft model as single agent and in combination. […]"}, "[1]": {"tested_on": "regulatory T cells (Treg)", "test": "Analysis of Treg and CD8+ T cells in tumor, spleen and thymus of A20 model", "format": "in vivo, mouse", "protocol": "Sampling procedures: organ and tumor tissues were quickly removed and weighted 3h post the final dose for FACS, IHC (FFPE), and RNA/pretein expression analysis.\nThe anti-tumor activity of Compound A and Compound B was assessed firstly in an immune-checkpoint blocker resistant DLBCL syngeneic A20 xenograft mouse model as single agent and in combination. A20 cells were inoculated subcutaneously at the right flank of female BALB/c mice for tumor development. The treatment was started when the average tumor size reached about 116 mm^3. Mice were allocated randomly into experimental groups according to their tumor sizes and being treated from day 12 after tumor cell inoculation. Cpd A was dosed at 14 mg/kg and Cpd B at 200 μg/mouse intravenously with the schedule indicated in FIG. 1 A. Treatment groups were: control antibody (ctrl Ab), vehicle control (vehicle), compound A monotherapy (Cpd. A), Cpd. B monotherapy, 3 combination groups with different dosing schedules. Body weights and tumor size were measured three times per week. Tumor growth curve (FIG. 1B), tumor weight at the end of treatment (FIG. 1C) and tumor response (FIG. 1D) were used as anti-tumor activity endpoints. The tolerability was assessed by body weight change. […]"}, "[2]": {"tested_on": "A20 diffuse large B cell lymphoma", "test": "Anti-tumor efficacy in DLBCL syngeneic A20 mouse model", "format": "in vivo", "conditions": "monotherapy; Cpd A 14 mg/kg, Cpd B 200 μg/mouse, intravenously; vs vehicle control group", "protocol": "as §1, §2\nThe anti-tumor activity of Compound A and Compound B was assessed firstly in an immune-checkpoint blocker resistant DLBCL syngeneic A20 xenograft mouse model as single agent and in combination. […] Body weights and tumor size were measured three times per week. […] The tolerability was assessed by body weight change. […]"}},
  "note": "Structures can show the parent of a compound that is named as a salt.",
  "data": [
    {"smiles": "COc1c(OCCCN2CCOCC2)ccc2c1N=C(NC(=O)c1cnc(N)nc1)N1CCN=C21", "note": "[Cpd A, 2-amino-N-[7-methoxy-8-(3-morpholin-4-ylpropoxy)-2,3-dihydroimid-azo[1,2-c]quinazolin-5-yl]pyrimidine-5-carboxamide dihydrochloride]", "values": [
      {"measurement": "TGI", "setting": "CT26 colorectal cancer", "result": 71, "unit": "%"},
      {"measurement": "effect on Treg in thymus and spleen", "setting": "[1]; A20 model, thymus and spleen", "result": "minimal or no effects"},
      {"measurement": "effect on Treg population in tumors", "setting": "[1]; A20 tumors, Treg among CD4+ T cells", "result": "specifically reduce the Treg population in tumors"},
      {"measurement": "relative tumor growth inhibition (TGI %)", "setting": "[2]", "result": 78, "unit": "%"}
    ]}
  ]
}
